test system: Phytophthora infestans; experiment: microbe, parasite or virus in culture; type: cell-based; conditions: in Secale cereale, 168 h, read-out: control compared to the untreated check

SMILES	inhibition of growth at 30 ppm [%]
CS(=O)(=O)Oc1cccc(Cl)c1C1CC(c2csc(C3CCN(C(=O)COc4cncc(C(F)(F)F)n4)CC3)n2)=NO1 (stereo not drawn) [Compound 57, 3-chloro-2-(3-(2-(1-(2-((6-(trifluoromethyl)pyrazin-2-yl)oxy)acetyl)piperidin-4-yl)thiazol-4-yl)-4,5-dihydroisoxazol-5-yl)phenyl methanesulfonate]	≥ 70
O=C(COc1cncc(C(F)(F)F)n1)N1CCC(c2nc(C3=NOC(c4c(F)cccc4F)C3)cs2)CC1 (stereo not drawn) [Compound 58, 1-(4-(4-(5-(2,6-difluorophenyl)-4,5-dihydroisoxazol-3-yl)thiazol-2-yl)piperidin-1-yl)-2-((6-(trifluoromethyl)pyrazin-2-yl)oxy)ethan-1-one]	≥ 70
O=C(COc1cncc(C(F)(F)F)n1)N1CCC(c2nc(C3=NOC(c4c(F)cccc4Br)C3)cs2)CC1 (stereo not drawn) [Compound 59, 1-(4-(4-(5-(2-bromo-6-fluorophenyl)-4,5-dihydroisoxazol-3-yl)thiazol-2-yl)piperidin-1-yl)-2-((6-(trifluoromethyl)pyrazin-2-yl)oxy)ethan-1-one]	≥ 70
O=C(COc1cncc(C(F)(F)F)n1)N1CCC(c2nc(C3=NOC(c4c(Cl)ccc(F)c4F)C3)cs2)CC1 (stereo not drawn) [Compound 61, 1-(4-(4-(5-(6-chloro-2,3-difluorophenyl)-4,5-dihydroisoxazol-3-yl)thiazol-2-yl)piperidin-1-yl)-2-((6-(trifluoromethyl)pyrazin-2-yl)oxy)ethan-1-one]	≥ 70
COc1ccnc(OCC(=O)N2CCC(c3nc(C4=NOC(c5c(Cl)ccc(F)c5F)C4)cs3)CC2)n1 (stereo not drawn) [Compound 63, 1-(4-(4-(5-(6-chloro-2,3-difluorophenyl)-4,5-dihydroisoxazol-3-yl)thiazol-2-yl)piperidin-1-yl)-2-((4-methoxypyrimidin-2-yl)oxy)ethan-1-one]	≥ 70
COc1nccnc1OCC(=O)N1CCC(c2nc(C3=NOC(c4c(Cl)cccc4C(F)(F)F)C3)cs2)CC1 (stereo not drawn) [Compound 65, 1-(4-(4-(5-(2-chloro-6-(trifluoromethyl)phenyl)-4,5-dihydroisoxazol-3-yl)thiazol-2-yl)piperidin-1-yl)-2-((3-methoxypyrazin-2-yl)oxy)ethan-1-one]	≥ 70
O=C(COc1ccc(C(F)(F)F)nn1)N1CCC(c2nc(C3=NOC(c4c(Cl)cccc4C(F)(F)F)C3)cs2)CC1 (stereo not drawn) [Compound 66, 1-(4-(4-(5-(2-chloro-6-(trifluoromethyl)phenyl)-4,5-dihydroisoxazol-3-yl)thiazol-2-yl)piperidin-1-yl)-2-((6-(trifluoromethyl)pyridazin-3-yl)oxy)ethan-1-one]	≥ 70
O=C(COc1cncc(C(F)(F)F)n1)N1CCC(c2nc(C3=NOC(c4c(Cl)cccc4C(F)(F)F)C3)cs2)CC1 (stereo not drawn) [Compound 68, 1-(4-(4-(5-(2-chloro-6-(trifluoromethyl)phenyl)-4,5-dihydroisoxazol-3-yl)thiazol-2-yl)piperidin-1-yl)-2-((6-(trifluoromethyl)pyrazin-2-yl)oxy)ethan-1-one]	≥ 70
O=C(COc1cnc(C(F)(F)F)cn1)N1CCC(c2nc(C3=NOC(c4c(Cl)cccc4C(F)(F)F)C3)cs2)CC1 (stereo not drawn) [Compound 69, 1-(4-(4-(5-(2-chloro-6-(trifluoromethyl)phenyl)-4,5-dihydroisoxazol-3-yl)thiazol-2-yl)piperidin-1-yl)-2-((5-(trifluoromethyl)pyrazin-2-yl)oxy)ethan-1-one]	≥ 70
O=C(COc1nccc(C(F)(F)F)n1)N1CCC(c2nc(C3=NOC(c4c(Cl)ccc(F)c4F)C3)cs2)CC1 (stereo not drawn) [Compound 70, 1-(4-(4-(5-(6-chloro-2,3-difluorophenyl)-4,5-dihydroisoxazol-3-yl)thiazol-2-yl)piperidin-1-yl)-2-((4-(trifluoromethyl)pyrimidin-2-yl)oxy)ethan-1-one]	≥ 70
COc1cncnc1OCC(=O)N1CCC(c2nc(C3=NOC(c4c(Cl)cccc4C#N)C3)cs2)CC1 (stereo not drawn) [Compound 71, 3-chloro-2-(3-(2-(1-(2-((5-methoxypyrimidin-4-yl)oxy)acetyl)piperidin-4-yl)thiazol-4-yl)-4,5-dihydroisoxazol-5-yl)benzonitrile]	≥ 70
COc1cncnc1OCC(=O)N1CCC(c2nc(C3=NOC(c4c(Cl)cccc4OS(C)(=O)=O)C3)cs2)CC1 (stereo not drawn) [Compound 72, 3-chloro-2-(3-(2-(1-(2-((5-methoxypyrimidin-4-yl)oxy)acetyl)piperidin-4-yl)thiazol-4-yl)-4,5-dihydroisoxazol-5-yl)phenyl methanesulfonate]	≥ 70
COc1cncnc1OCC(=O)N1CCC(c2nc(C3=NOC(c4c(Cl)cccc4Cl)C3)cs2)CC1 (stereo not drawn) [Compound 73, 1-(4-(4-(5-(2,6-dichlorophenyl)-4,5-dihydroisoxazol-3-yl)thiazol-2-yl)piperidin-1-yl)-2-((5-methoxypyrimidin-4-yl)oxy)ethan-1-one]	≥ 70
COc1cncnc1OCC(=O)N1CCC(c2nc(C3=NOC(c4c(F)cccc4Cl)C3)cs2)CC1 (stereo not drawn) [Compound 74, 1-(4-(4-(5-(2-chloro-6-fluorophenyl)-4,5-dihydroisoxazol-3-yl)thiazol-2-yl)piperidin-1-yl)-2-((5-methoxypyrimidin-4-yl)oxy)ethan-1-one]	≥ 70
COc1cncnc1OCC(=O)N1CCC(c2nc(C3=NOC(c4c(Cl)cc(Cl)cc4Cl)C3)cs2)CC1 (stereo not drawn) [Compound 75, 2-((5-methoxypyrimidin-4-yl)oxy)-1-(4-(4-(5-(2,4,6-trichlorophenyl)-4,5-dihydroisoxazol-3-yl)thiazol-2-yl)piperidin-1-yl)ethan-1-one]	≥ 70
COc1cncnc1OCC(=O)N1CCC(c2nc(C3=NOC(c4c(F)cccc4F)C3)cs2)CC1 (stereo not drawn) [Compound 76, 1-(4-(4-(5-(2,6-difluorophenyl)-4,5-dihydroisoxazol-3-yl)thiazol-2-yl)piperidin-1-yl)-2-((5-methoxypyrimidin-4-yl)oxy)ethan-1-one]	≥ 70
COc1cncnc1OCC(=O)N1CCC(c2nc(C3=NOC(c4cc(Cl)ccc4Cl)C3)cs2)CC1 (stereo not drawn) [Compound 77, 1-(4-(4-(5-(2,5-dichlorophenyl)-4,5-dihydroisoxazol-3-yl)thiazol-2-yl)piperidin-1-yl)-2-((5-methoxypyrimidin-4-yl)oxy)ethan-1-one]	≥ 70
COc1cncnc1OCC(=O)N1CCC(c2nc(C3=NOC(c4c(F)cccc4Br)C3)cs2)CC1 (stereo not drawn) [Compound 78, 1-(4-(4-(5-(2-bromo-6-fluorophenyl)-4,5-dihydroisoxazol-3-yl)thiazol-2-yl)piperidin-1-yl)-2-((5-methoxypyrimidin-4-yl)oxy)ethan-1-one]	≥ 70
COc1cncnc1OCC(=O)N1CCC(c2nc(C3=NOC(c4c(O)cccc4Cl)C3)cs2)CC1 (stereo not drawn) [Compound 79, 1-(4-(4-(5-(2-chloro-6-hydroxyphenyl)-4,5-dihydroisoxazol-3-yl)thiazol-2-yl)piperidin-1-yl)-2-((5-methoxypyrimidin-4-yl)oxy)ethan-1-one]	≥ 70
COc1cncnc1OCC(=O)N1CCC(c2nc(C3=NOC(c4c(Cl)cccc4C(F)(F)F)C3)cs2)CC1 (stereo not drawn) [Compound 80, 1-(4-(4-(5-(2-chloro-6-(trifluoromethyl)phenyl)-4,5-dihydroisoxazol-3-yl)thiazol-2-yl)piperidin-1-yl)-2-((5-methoxypyrimidin-4-yl)oxy)ethan-1-one]	≥ 70
COc1cncnc1OCC(=O)N1CCC(c2nc(C3=NOC(c4c(Cl)ccc(F)c4F)C3)cs2)CC1 (stereo not drawn) [Compound 81, 1-(4-(4-(5-(6-chloro-2,3-difluorophenyl)-4,5-dihydroisoxazol-3-yl)thiazol-2-yl)piperidin-1-yl)-2-((5-methoxypyrimidin-4-yl)oxy)ethan-1-one]	≥ 70
COc1ccnc(OCC(=O)N2CCC(c3nc(C4=NOC(c5c(Cl)cccc5C(F)(F)F)C4)cs3)CC2)n1 (stereo not drawn) [Compound 82, 1-(4-(4-(5-(2-chloro-6-(trifluoromethyl)phenyl)-4,5-dihydroisoxazol-3-yl)thiazol-2-yl)piperidin-1-yl)-2-((4-methoxypyrimidin-2-yl)oxy)ethan-1-one]	≥ 70
COc1ccnc(OCC(=O)N2CCC(c3nc(C4=NOC(c5c(O)cccc5Cl)C4)cs3)CC2)n1 (stereo not drawn) [Compound 83, 1-(4-(4-(5-(2-chloro-6-hydroxyphenyl)-4,5-dihydroisoxazol-3-yl)thiazol-2-yl)piperidin-1-yl)-2-((4-methoxypyrimidin-2-yl)oxy)ethan-1-one]	≥ 70
O=C(COc1nccc(C(F)(F)F)n1)N1CCC(c2nc(C3=NOC(c4c(Cl)cccc4C(F)(F)F)C3)cs2)CC1 (stereo not drawn) [Compound 84, 1-(4-(4-(5-(2-chloro-6-(trifluoromethyl)phenyl)-4,5-dihydroisoxazol-3-yl)thiazol-2-yl)piperidin-1-yl)-2-((4-(trifluoromethyl)pyrimidin-2-yl)oxy)ethan-1-one]	≥ 70
O=C(COc1nccc(C(F)(F)F)n1)N1CCC(c2nc(C3=NOC(c4c(O)cccc4Cl)C3)cs2)CC1 (stereo not drawn) [Compound 85, 1-(4-(4-(5-(2-chloro-6-hydroxyphenyl)-4,5-dihydroisoxazol-3-yl)thiazol-2-yl)piperidin-1-yl)-2-((4-(trifluoromethyl)pyrimidin-2-yl)oxy)ethan-1-one]	≥ 70
O=C(COc1cnc(C(F)(F)F)cn1)N1CCC(c2nc(C3=NOC(c4c(Cl)cccc4Cl)C3)cs2)CC1 (stereo not drawn) [Compound 88, 1-(4-(4-(5-(2,6-dichlorophenyl)-4,5-dihydroisoxazol-3-yl)thiazol-2-yl)piperidin-1-yl)-2-((5-(trifluoromethyl)pyrazin-2-yl)oxy)ethan-1-one]	≥ 70
N#Cc1cccc(Cl)c1C1CC(c2csc(C3CCN(C(=O)COc4cnc(C(F)(F)F)cn4)CC3)n2)=NO1 (stereo not drawn) [Compound 93, 3-chloro-2-(3-(2-(1-(2-((5-(trifluoromethyl)pyrazin-2-yl)oxy)acetyl)piperidin-4-yl)thiazol-4-yl)-4,5-dihydroisoxazol-5-yl)benzonitrile]	≥ 70

From patent US12471596B2 (priority 2019, dated 2025)
